How the values were obtained:
[1] = test system: CDH6 expressing cell lines compared to non-expressing cell lines; assay: In vitro cellular activity on panel of CDH6 expressing and non-expressing cell lines; details: OVCAR3 and OVCAR8-CDH6+ compared to OVCAR8; FIG. 12
[2] = test system: CDH6 expressing primary (patient derived) ovarian tumors; assay: Patient-derived primary ovarian tumor xenograft mouse model (Example 18); type: in vivo, nude mice; details: 5 mg/kg i.v. Q14D
Experimental: Mice were enrolled in the study 48 days post implant with a mean tumor volume of 178 mm^3. […] All groups were dosed at 5 mg/kg.

With “NOV0712: anti-CDH6 human IgG1 from HuCAL PLATINUM phage display; binds CDH6 EC5; sequence in Table 5” the “Cellular activity (inhibition of proliferation)” value [1] was “No cellular activity was observed” and the “Anti-tumor activity (tumor volume)” value [2] was “no inhibitory effect upon tumor growth”.
